Laboratory results taken from patent US9415036B2, “Pharmaceutical composition for use in the treatment or prevention of osteoarticular diseases” (BONE THERAPEUTICS, priority 2008, dated 2016).
“And” between values parts separate entries of the source, which are not always exact repeats. Equal values may be shown once.

Columns and labels:
Type in all cases: cell-based, human
IL-1β = IL-1β detection (ELISA) in PBMC culture supernatants
Procedure: (§1) PBMCs (Peripheral blood mononuclear cells) from heparinized venous blood of healthy volunteers were isolated by Ficoll-gradient centrifugation. MNC (Mononuclear cells) were washed three times in PBS and resuspended in RPMI-1640 medium supplemented with 100 U/mL penicillin, 100 μg/mL streptomycin, and 10% heat-inactivated FBS (Fetal Bovine Serum). Cells were seeded at 100.000 cells in 96-wel plate in a total volume of 200 μL/well.
(§2) PBMC, at 100.000 cells/200 μL, were plated in 96-well microtiter plates and stimulated or not with 10 μg/mL phytohemagglutinin (PHA). Effects of hyaluronic acid “HA” (200 μg/mL) and p-aminoclonidine “A2A” (5 μM) were tested on PBMC.
MSC (Mesenchymal stromal cells) were derived from 20 to 60 mL of heparinized bone marrow (BM) obtained from the iliac crest of healthy volunteers. BM was mixed with phosphate-buffered saline (PBS, 2v:v) and layered on density gradient Ficoll solution. After centrifugation, mononuclear cells were harvested from the interface and washed twice in PBS. […]
The culture was incubated with 1 μCi/mL 3H-thymidine for 24 hours before end of culture to measure the proliferation. […] Supernatants were collected and analyzed on a beta-counter in presence of scintillation liquid. […] Levels of IL-1β from PBMC or culture supernatants were measured by Quantikine ELISA kit (R&D Systems Inc, Mineapolis, USA). […]

[1] = test system: PBMC (Peripheral blood mononuclear cells); test: Proliferation assay (3H-thymidine) of PBMC
Procedure: as §1, §2
MSC (Mesenchymal stromal cells) were derived from 20 to 60 mL of heparinized bone marrow (BM) obtained from the iliac crest of healthy volunteers. BM was mixed with phosphate-buffered saline (PBS, 2v:v) and layered on density gradient Ficoll solution. After centrifugation, mononuclear cells were harvested from the interface and washed twice in PBS. Cells were resuspended in standard MEM medium supplemented with 15% FBS. The cells were plated at 2×10^6 cells/75 cm2 flasks and maintained in a 37° C. humidified atmosphere containing 5% CO2. Cells were allowed to attach for 24 hours prior an initial medium change. Cells were detached at day 10 using trypsin-EDTA solution for 1-5 min at 37° C. Then, cells were irradiated (10 minutes at 2200Ci) before seeding in 96-well for proliferative assays at 12.500 cells/well to obtain a ratio 1:8 (MSC:PBMC).
The culture was incubated with 1 μCi/mL 3H-thymidine for 24 hours before end of culture to measure the proliferation. Then, cells were washed twice with ice-cold PBS and twice with ice-cold 5% trichloroacetic acid (TCA). Finally, cells were lysed with 0.1N NaOH-0.1% Triton-X100. Supernatants were collected and analyzed on a beta-counter in presence of scintillation liquid. Results were done in cpm (“count per minute”=disintegration number of radioactive element observed in series of successive counts of one minute). IL-1β (beta) detection (By ELISA). Levels of IL-1β from PBMC or culture supernatants were measured by Quantikine ELISA kit (R&D Systems Inc, Mineapolis, USA). The minimum detectable concentration of IL-1β was estimated at 1.0 pg/mL.
The release of IL-1 beta by PBMC and the proliferation of PBMC, induced by PHA stimulation, were set as controls, and compared with the measures for PBMC treated with HA and/or A2A.

MSCs = MSCs cultured in chondrogenic medium, pellets stained with Alcian blue / Nuclear fast red; details: HA 200 μg/ml, A2A 5 μMol
Procedure: MSCs were culture in chondrogenic medium for 7, 14 and 21 days and 4 conditions were tested • control • A2A: 5 μMol aminoclonidine • HA: 200 μg/ml of hyaluronic acid • HA+A2A: 200 μg/ml of hyaluronic acid and 5 μMol aminoclonidine
At day 14 and 21, pellets were fixed in 10% buffered formalin for 6 hours, and washed twice in PBS. Pellets were then embedded in OCT (Sakura Finetek, Belgium). Sections were cut at a thickness of 5 μm and were stained with Alcian blue, before counterstained with Nuclear fast red (Klinipath, Belgium)
GAGs will be stained blue, while Nuclear fast red will counterstain cells nuclei in pink or red, and cytoplasm in pale pink. In brief, the procedure is 1) Stain in alcian blue solution for 30 minutes; 3) Wash in running tap water for 2 minutes; 4) Rinse in distilled water; 5) Counterstain in nuclear fast red solution for 5 minutes; 6) Wash in running tap water for 1 minute; 7) Dehydrate through 95% alcohol, and 2 changes of absolute alcohol, 3 minutes each; 8) clear in Ultraclear, a xylene substitute (Klinipath, Belgium); 9) Mount with Ultrakit mounting medium (Klinipahth, Belgium). Toluidine blue stains proteoglycan in red-purple (metachromatic staining) and the nucleus in blue (orthochromatic staining). Metachromasia, tissue elements staining a different color from the dye solution, is due to the pH, dye concentration and temperature of the basic dye. […]

[2] = basal (unstimulated) conditions

`Nc1cc(Cl)c(N=C2NCCN2)c(Cl)c1` [A2A, p-aminoclonidine] was tested, and the “effect on IL-1beta secretion” value (IL-1β; PHA stimulated PBMC) was “totally suppressed”, the “effect on IL-1beta secretion” value (IL-1β; [2]) was “no effect” and the Proliferation ([1]; PBMC stimulated with 10 μg/mL PHA, HA 200 μg/mL, A2A 5 μM, MSC:PBMC 1:8) was 16212 cpm. For the same compound, the “effect on PBMC proliferation” value ([1]; PHA stimulated PBMC) was “not able to inhibit”, the Proliferation ([1]; PHA stimulated PBMC, PBMC + PHA set at 100) was 101% and 100% and the “effect on PBMC proliferation” value [1, 2] was “no effect”. The Proliferation ([1]; unstimulated PBMC, HA 200 μg/mL, A2A 5 μM, MSC:PBMC 1:8) was 786 cpm, the Proliferation ([1]; unstimulated PBMC, PBMC + PHA set at 100) was 4.9% and the “matrix (mucopolysaccharides and glycosaminoglycans) content / production, Alcian blue staining” value (MSCs) was “almost absent”.
